# Laboratory results: patent US10441564B2, “Fructose analogs and their combinations as anti-cancer agents” (priority 2016, dated 2019)
# “Also recorded” adds a separate entry of the source.
# Columns and labels:
# [1] = system: U937-SLC2A5 cells (overexpressing the fructose transporter SLC2A5); assay: malignant proliferation of AML cells U937-SLC2A5; format: cell-based; conditions: 6 mM fructose or 6 mM fructose+0.75 mM glucose
# [2] = system: U937-SLC2A5 cells (overexpressing the fructose transporter SLC2A5); assay: colony formation of U937-SLC2A5 cells; format: cell-based; conditions: 6 mM fructose or 6 mM fructose+0.75 mM glucose
# [3] = system: U937-SLC2A5 cells (overexpressing the fructose transporter SLC2A5); assay: cell migration of U937-SLC2A5 cells; format: cell-based; conditions: 6 mM fructose or 6 mM fructose+0.75 mM glucose
# [4] = system: U937; assay: proliferation of AML cells U937; format: cell-based
# Protocol: (§1) In cell culture conditions with 6 mM fructose or 6 mM fructose+0.75 mM glucose, 2,5-AM could inhibit the proliferation of four AML cells, including U937, OCI-AML3, HL-60 and K562 cells.
# [5] = system: OCI-AML3; assay: proliferation of AML cells OCI-AML3; format: cell-based
# Protocol: as §1
# [6] = system: HL-60; assay: proliferation of AML cells HL-60; format: cell-based
# Protocol: as §1
# [7] = system: K562; assay: proliferation of AML cells K562; format: cell-based
# [8] = system: AML mice (murine leukemic cells with AML1-ETO and mutated C-KIT); assay: AML model mice; format: in vivo, BALB/c female mice
# Protocol: AML mice were generated using a previously reported procedure (Wang et al., 2011) with minor modifications. About 1×10^5 GFP-positive murine leukemic cells (splenic cells) with AML1-ETO and mutated C-KIT were injected into the tail vein of each sublethally irradiated (3.5 Gy), 8 week old BALB/c female mice. On day 5 after inoculation of AML cells, 2,5-AM was injected intraperitoneally at a dose of 150 mg/kg/day for continuous administration to mice. Control group AML mice were given saline injection according to the same dose and method.
# chemotherapeutic drug cytarabine on the treatment of AML model mice (Ara-C) was administered intraperitoneally at a dose of 25 mg/kg/day on the third day in the AML model mice (see example 3) for 3 days after AML cell inoculation. At the same time, mice were intraperitoneally injected with 2,5 AM at a dose of 150 mg/kg/day on day 5 after AML cell inoculation, until mice were dead. (2) Ara-C alone group: In the AML model mice of Example 3, Ara-C was injected intraperitoneally at a dose of 25 mg/kg/day on the third day after AML cell inoculation for 3 days.
# [9] = system: PANC-1; assay: fructose-induced proliferation of pancreatic cancer cells PANC-1; format: cell-based; conditions: 6 mM fructose culture
# [10] = system: CFPAC-1; assay: fructose-induced proliferation of pancreatic cancer cells CFPAC-1; format: cell-based; conditions: 6 mM fructose culture
# [11] = system: BxPC-3; assay: fructose-induced proliferation of pancreatic cancer cells BxPC-3; format: cell-based; conditions: 6 mM fructose culture
# [12] = system: HCT-15; assay: malignant proliferation of colorectal cancer cells HCT-15; format: cell-based; conditions: 6 mM fructose culture
# [13] = system: HCT-116; assay: malignant proliferation of colorectal cancer cells HCT-116; format: cell-based; conditions: 6 mM fructose culture
# [14] = system: AML cells; assay: fructose utilization in AML cells in vitro; format: cell-based; conditions: in vitro cell experiments
# Excerpt: Enhanced fructose metabolism mediated by GLUTS exacerbates the malignant phenotype of AML cells, including increased cell proliferation, enhanced colony formation, and increased mobility and infiltration of AML cells (FIG. 3A-3D). […] Additionally 2,5-AM can kill AML cells in concert with conventional chemotherapeutic agents (FIG. 7A-7G).
# [15] = system: cancer cells; assay: fructose and glucose utilization by cancer cells; format: cell-based
# Excerpt: The present inventors have discovered, for the first time, the important role of GLUTS-mediated fructose metabolism in the malignant progression of cancer, and the close relationship with the prognosis of the cancer patients, through extensive and in-depth research and clinical data analysis. […] Furthermore, 2,5-AM may reverse the malignant phenotypes of AML cells by synergizing with conventional chemotherapeutic cytarabine or glucose analogue 2-deoxy-glucose (2-DG). […] Moreover, 2,5-AM and cytarabine in AML mice also have a significant synergistic effect. Through the above work, the present inventors have determined the administration of 2,5-AM to AML, pancreatic cancer, and colorectal cancer, including the dosage, the route of administration and the duration of administration; and the combined use of 2,5-AM and conventional chemotherapeutic agents or 2-DG methods for cancer treatment.
# [16] = 6 mM fructose or 6 mM fructose+0.75 mM glucose
# [17] = 150 mg/kg/day intraperitoneally from day 5, compared with saline control group
structure (smiles),measurement,setting,value
"OC[C@H]1O[C@H](CO)[C@@H](O)[C@@H]1O [2,5-AM, 2,5-anhydro-D-mannitol]",malignant proliferation of AML cells U937-SLC2A5,[1],significantly inhibited
same,colony formation,[2],significantly inhibited
same,cell migration,[3],significantly inhibited
same,malignant proliferation of U937,[4]; [16],significantly inhibited; also recorded: could inhibit
same,cell proliferation of U937,[4]; 6 mM glucose,almost unaffected
same,malignant proliferation of OCI-AML3,[5]; [16],significantly inhibited; also recorded: could inhibit
same,cell proliferation of OCI-AML3,[5]; 6 mM glucose,almost unaffected
same,malignant proliferation of HL-60,[6]; [16],significantly inhibited; also recorded: could inhibit
same,cell proliferation of HL-60,[6]; 6 mM glucose,almost unaffected
same,malignant proliferation of K562,[7]; [16],significantly inhibited; also recorded: could inhibit
same,cell proliferation of K562,[7]; 6 mM glucose,almost unaffected
same,bone marrow leukemia cells,[8]; [17],significantly inhibited
same,hemoglobin,[8]; [17],significantly increased
same,overall survival of mice,[8]; [17],significantly prolonged
same,peripheral blood leukemia cells,[8]; [17],significantly inhibited
same,peripheral blood red blood cell count,[8]; [17],significantly increased
same,peripheral white blood cells,[8]; [17],significantly inhibited
same,platelet count,[8]; [17],significantly increased
same,spleen enlargement,[8]; [17],significantly relieved
same,fructose utilization by AML cells in vivo,[8]; mouse in vivo experiments,significantly inhibited
same,proliferation of PANC-1,[9],significantly inhibited
same,proliferation of CFPAC-1,[10],significantly inhibited
same,proliferation of BxPC-3,[11],significantly inhibited
same,malignant proliferation of HCT-15,[12],significantly inhibited
same,malignant proliferation of HCT-116,[13],significantly inhibited
same,fructose utilization in AML cells,[14],blocked
same,fructose utilization by cancer cells,[15],competitively inhibits
same,glucose utilization,[15],little effect
